Experiments:
[1] = biological target: T1, Serine/threonine-protein kinase pim-3 (Homo sapiens, UniProt Q86V86); assay: Inhibition of human full length Pim-3 using RSRHSSYPAGT as substrate assessed as residual activity after 30 mins in presence of [gamma-33P]ATP
[2] = biological target: T2, Serine/threonine-protein kinase pim-1 (Homo sapiens, UniProt P11309); assay: Inhibition of human full length Pim-1 using RSRHSSYPAGT as substrate assessed as residual activity after 30 mins in presence of [gamma-33P]ATP
Target sequence in this assay (P11309 whole entry): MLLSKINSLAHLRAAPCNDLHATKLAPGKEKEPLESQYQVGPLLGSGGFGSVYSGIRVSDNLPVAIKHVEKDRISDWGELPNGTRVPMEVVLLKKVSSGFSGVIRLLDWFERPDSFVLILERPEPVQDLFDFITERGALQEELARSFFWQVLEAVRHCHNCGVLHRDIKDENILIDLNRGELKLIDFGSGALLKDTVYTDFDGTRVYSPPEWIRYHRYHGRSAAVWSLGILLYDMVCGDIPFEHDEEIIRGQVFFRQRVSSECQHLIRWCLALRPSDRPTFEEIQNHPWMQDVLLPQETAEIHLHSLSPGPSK

[3] = biological target: T1, Serine/threonine-protein kinase pim-3; assay: Inhibition of human full length Pim-3 using RSRHSSYPAGT as substrate assessed as residual activity at 1 uM after 30 mins in presence of [gamma-33P]ATP; values are per cent of control
[4] = biological target: Serine/threonine-protein kinase pim-2 (Homo sapiens) (UniProt Q9P1W9); assay: Inhibition of human full length Pim-2 using RSRHSSYPAGT as substrate assessed as residual activity at 1 uM after 30 mins in presence of [gamma-33P]ATP; values are per cent of control
Chain of Serine/threonine-protein kinase pim-2 (Homo sapiens) (Q9P1W9 whole entry, looked up): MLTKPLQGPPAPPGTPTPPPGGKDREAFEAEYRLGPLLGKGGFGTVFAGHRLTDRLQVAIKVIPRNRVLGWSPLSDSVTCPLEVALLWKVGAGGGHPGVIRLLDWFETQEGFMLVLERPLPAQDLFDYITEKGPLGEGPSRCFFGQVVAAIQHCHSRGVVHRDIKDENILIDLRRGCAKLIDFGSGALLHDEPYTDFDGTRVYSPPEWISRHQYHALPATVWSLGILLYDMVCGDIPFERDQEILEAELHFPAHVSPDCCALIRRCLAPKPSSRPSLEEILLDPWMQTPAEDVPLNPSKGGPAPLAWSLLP

[5] = biological target: T2, Serine/threonine-protein kinase pim-1; assay: Inhibition of human full length Pim-1 using RSRHSSYPAGT as substrate assessed as residual activity at 1 uM after 30 mins in presence of [gamma-33P]ATP; values are per cent of control
Target sequence in this assay (P11309 whole entry, looked up): as the sequence (P11309 whole entry) above

[6] = biological target: T1, Serine/threonine-protein kinase pim-3; assay: Inhibition of human full length Pim-3 using RSRHSSYPAGT as substrate assessed as residual activity at 10 uM after 30 mins in presence of [gamma-33P]ATP; values are per cent of control
[7] = biological target: Serine/threonine-protein kinase pim-2 (Homo sapiens) (UniProt Q9P1W9); assay: Inhibition of human full length Pim-2 using RSRHSSYPAGT as substrate assessed as residual activity at 10 uM after 30 mins in presence of [gamma-33P]ATP; values are per cent of control
[8] = biological target: T2, Serine/threonine-protein kinase pim-1; assay: Inhibition of human full length Pim-1 using RSRHSSYPAGT as substrate assessed as residual activity at 10 uM after 30 mins in presence of [gamma-33P]ATP; values are per cent of control
Target sequence in this assay (P11309 whole entry, looked up): as the sequence (P11309 whole entry) above

With `Nc1cc2cn[nH]c2c2cc[nH]c12` as the compound, how does the IC50 [1] read?
Its IC50 is 33 nM.

What about the IC50 [2] of the same compound?
The IC50 was 460 nM.

What about the residual activity [3] of the same compound?
Its residual activity is 20%.

And the residual activity [4]?
Its residual activity is 99%.

And the residual activity [5]?
The residual activity was 63%.

What about the residual activity [6] of the same compound?
Its residual activity is 4%.

What about the residual activity [7] of the same compound?
Its residual activity is 104%.

And the residual activity [8]?
The residual activity was 17%.

How did the IC50 [1] turn out when `CCc1[nH]c2c([N+](=O)[O-])cc3cn[nH]c3c2c1-c1ccccc1` was run?
Its IC50 is 119 nM.

And the IC50 [2]?
Its IC50 is 230 nM.

What about the residual activity [3] of the same compound?
Its residual activity is 31%.

What about the residual activity [4] of the same compound?
Its residual activity is 77%.

What about the residual activity [5] of the same compound?
The residual activity was 43%.

What about the residual activity [6] of the same compound?
Its residual activity is 36%.

What about the residual activity [7] of the same compound?
The residual activity was 84%.

And the residual activity [8]?
The residual activity was 51%.

`CCCc1c(C(=O)OC)[nH]c2c([N+](=O)[O-])cc3cn[nH]c3c12` was tested. Which IC50 [1] did it give?
The IC50 was 546 nM.

What about the residual activity [3] of the same compound?
The residual activity was 50%.

And the residual activity [4]?
The residual activity was 113%.

What about the residual activity [5] of the same compound?
The residual activity was 110%.

And the residual activity [6]?
Its residual activity is 24%.

What about the residual activity [7] of the same compound?
The residual activity was 85%.

What about the residual activity [8] of the same compound?
The residual activity was 39%.

For `O=[N+]([O-])c1cc2cn[nH]c2c2c(-c3ccccc3)c[nH]c12`, which IC50 [1] is on record?
The IC50 was 530 nM.

What about the IC50 [2] of the same compound?
Its IC50 is 1000 nM.

And the residual activity [3]?
Its residual activity is 38%.

What about the residual activity [4] of the same compound?
Its residual activity is 82%.

What about the residual activity [5] of the same compound?
Its residual activity is 52%.

And the residual activity [6]?
Its residual activity is 21%.

What about the residual activity [7] of the same compound?
Its residual activity is 70%.

What about the residual activity [8] of the same compound?
The residual activity was 28%.

`CCc1[nH]c2c(N)cc3cn[nH]c3c2c1-c1ccccc1` was tested. Which residual activity [3] did it give?
Its residual activity is 72%.

And the residual activity [4]?
The residual activity was 91%.

What about the residual activity [5] of the same compound?
Its residual activity is 92%.

And the residual activity [6]?
The residual activity was 23%.

And the residual activity [7]?
The residual activity was 75%.

And the residual activity [8]?
Its residual activity is 44%.

Which results are given for `C[Si](C)(C)c1cc2c([nH]1)c(N)cc1cn[nH]c12`?
residual activity [3]: 67%; residual activity [4]: 93%; residual activity [5]: 94%; residual activity [6]: 24%; residual activity [7]: 111%; residual activity [8]: 52%

Which results are given for `CCOC(=O)c1[nH]c2c([N+](=O)[O-])cc3cn[nH]c3c2c1C`?
residual activity [3]: 72%; residual activity [4]: 105%; residual activity [5]: 78%; residual activity [6]: 47%; residual activity [7]: 97%; residual activity [8]: 72%

Which residual activity [3] does the source give for `CCOC(=O)c1[nH]c2c(N)cc3cn[nH]c3c2c1C` here?
The residual activity was 93%.

And the residual activity [4]?
The residual activity was 102%.

And the residual activity [5]?
The residual activity was 93%.

What about the residual activity [6] of the same compound?
The residual activity was 26%.

What about the residual activity [7] of the same compound?
Its residual activity is 97%.

And the residual activity [8]?
The residual activity was 61%.

Which results are given for `Cc1c[nH]c2c(N)cc3cn[nH]c3c12`?
residual activity [3]: 65%; residual activity [4]: 105%; residual activity [5]: 91%; residual activity [6]: 17%; residual activity [7]: 88%; residual activity [8]: 63%

What does the source list for `O=Cc1c[nH]c2c([N+](=O)[O-])cc3cn[nH]c3c12`?
residual activity [3]: 76%; residual activity [4]: 117%; residual activity [5]: 97%; residual activity [6]: 25%; residual activity [7]: 70%; residual activity [8]: 27%

`CCOC(=O)c1[nH]c2c(N)cc3cn[nH]c3c2c1-c1ccccc1` was tested. Which residual activity [3] did it give?
The residual activity was 72%.

What about the residual activity [4] of the same compound?
The residual activity was 101%.

What about the residual activity [5] of the same compound?
Its residual activity is 74%.

And the residual activity [6]?
The residual activity was 20%.

What about the residual activity [7] of the same compound?
The residual activity was 74%.

And the residual activity [8]?
The residual activity was 29%.

How did the residual activity [3] turn out when `CCOC(=O)c1[nH]c2c([N+](=O)[O-])cc3cn[nH]c3c2c1-c1ccccc1` was run?
The residual activity was 73%.

What about the residual activity [4] of the same compound?
Its residual activity is 92%.

What about the residual activity [5] of the same compound?
Its residual activity is 86%.

And the residual activity [6]?
Its residual activity is 90%.

What about the residual activity [7] of the same compound?
The residual activity was 113%.

And the residual activity [8]?
The residual activity was 55%.

Which results are given for `CCCc1c[nH]c2c([N+](=O)[O-])cc3cn[nH]c3c12`?
IC50 [1]: 260 nM; residual activity [3]: 24%; residual activity [4]: 66%; residual activity [5]: 78%; residual activity [6]: 6%; residual activity [7]: 27%; residual activity [8]: 54%

How did the residual activity [3] turn out when `Cc1c[nH]c2c([N+](=O)[O-])cc3cn[nH]c3c12` was run?
Its residual activity is 77%.

What about the residual activity [4] of the same compound?
Its residual activity is 99%.

And the residual activity [5]?
The residual activity was 68%.

What about the residual activity [6] of the same compound?
The residual activity was 26%.

And the residual activity [7]?
Its residual activity is 61%.

And the residual activity [8]?
The residual activity was 26%.

Which results are given for `C[Si](C)(C)c1cc2c([nH]1)c([N+](=O)[O-])cc1cn[nH]c12`?
IC50 [1]: 470 nM; residual activity [3]: 51%; residual activity [4]: 103%; residual activity [5]: 63%; residual activity [6]: 9%; residual activity [7]: 64%; residual activity [8]: 17%

`O=[N+]([O-])c1cc2cn[nH]c2c2cc[nH]c12` was tested. Which residual activity [3] did it give?
The residual activity was 78%.

And the residual activity [4]?
Its residual activity is 92%.

And the residual activity [5]?
The residual activity was 102%.

And the residual activity [6]?
Its residual activity is 18%.

What about the residual activity [7] of the same compound?
The residual activity was 80%.

And the residual activity [8]?
Its residual activity is 30%.

For `Nc1cc2cn[nH]c2c2c(-c3ccccc3)c[nH]c12`, which residual activity [3] is on record?
Its residual activity is 68%.

What about the residual activity [4] of the same compound?
Its residual activity is 103%.

And the residual activity [5]?
The residual activity was 111%.

What about the residual activity [6] of the same compound?
Its residual activity is 26%.

And the residual activity [7]?
Its residual activity is 92%.

What about the residual activity [8] of the same compound?
The residual activity was 51%.

Which residual activity [3] does the source give for `CCOCc1c[nH]c2c([N+](=O)[O-])cc3cn[nH]c3c12` here?
Its residual activity is 71%.

What about the residual activity [4] of the same compound?
Its residual activity is 109%.

And the residual activity [5]?
The residual activity was 82%.

And the residual activity [6]?
Its residual activity is 19%.

And the residual activity [7]?
Its residual activity is 63%.

What about the residual activity [8] of the same compound?
The residual activity was 26%.

For `CCCc1c(C(=O)OC)[nH]c2c(N)cc3cn[nH]c3c12`, which residual activity [3] is on record?
The residual activity was 82%.

And the residual activity [4]?
The residual activity was 105%.

What about the residual activity [5] of the same compound?
The residual activity was 71%.

What about the residual activity [6] of the same compound?
Its residual activity is 12%.

And the residual activity [7]?
Its residual activity is 78%.

And the residual activity [8]?
Its residual activity is 26%.

How did the residual activity [3] turn out when `CCCc1c[nH]c2c(N)cc3cn[nH]c3c12` was run?
Its residual activity is 79%.

What about the residual activity [4] of the same compound?
Its residual activity is 90%.

And the residual activity [5]?
Its residual activity is 104%.

And the residual activity [6]?
The residual activity was 39%.

And the residual activity [7]?
Its residual activity is 93%.

And the residual activity [8]?
Its residual activity is 57%.
